Laboratory results from PubChem BioAssay (NCI).
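1) Cells in 96-well plates. 2) Compound, 48 h, 5 concentrations. 3) Linear interpolation between surrounding doses. 4) Unreached endpoint = highest concentration. Here, GI50 denotes the concentration required for 50% inhibition of growth. TGI marks complete inhibition of growth.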

Assays:
Assay in all cases: NCI-60 cell line screen, 48 h
786-0 renal = test system: 786-0 renal
A498 renal = test system: A498 renal
A549 NSCLC = test system: A549 NSCLC
ACHN renal = test system: ACHN renal
CAKI-1 renal = test system: CAKI-1 renal
COLO 205 colon = test system: COLO 205 colon
DU-145 prostate = test system: DU-145 prostate
EKVX NSCLC = test system: EKVX NSCLC
HCC-2998 colon = test system: HCC-2998 colon
HCT-15 colon = test system: HCT-15 colon
HL-60(TB) leukemia = test system: HL-60(TB) leukemia
HOP-62 NSCLC = test system: HOP-62 NSCLC
HS 578T breast = test system: HS 578T breast
HT29 colon = test system: HT29 colon
IGROV1 ovarian = test system: IGROV1 ovarian
K-562 leukemia = test system: K-562 leukemia
KM12 colon = test system: KM12 colon
LOX IMVI melanoma = test system: LOX IMVI melanoma
M14 melanoma = test system: M14 melanoma
MALME-3M melanoma = test system: MALME-3M melanoma
MCF7 breast = test system: MCF7 breast
MDA-MB-231 breast = test system: MDA-MB-231 breast
MDA-MB-435 = test system: MDA-MB-435
MOLT-4 leukemia = test system: MOLT-4 leukemia
NCI-H226 lung = test system: NCI-H226 lung
NCI-H23 lung = test system: NCI-H23 lung
NCI-H460 lung = test system: NCI-H460 lung
NCI-H522 lung = test system: NCI-H522 lung
NCI/ADR-RES ovarian = test system: NCI/ADR-RES ovarian
OVCAR-3 ovarian = test system: OVCAR-3 ovarian
OVCAR-4 ovarian = test system: OVCAR-4 ovarian
OVCAR-5 ovarian = test system: OVCAR-5 ovarian
OVCAR-8 ovarian = test system: OVCAR-8 ovarian
RXF 393 renal = test system: RXF 393 renal
SF-268 CNS = test system: SF-268 CNS
SF-295 CNS = test system: SF-295 CNS
SF-539 CNS = test system: SF-539 CNS
SK-MEL-28 melanoma = test system: SK-MEL-28 melanoma
SK-MEL-5 melanoma = test system: SK-MEL-5 melanoma
SK-OV-3 ovarian = test system: SK-OV-3 ovarian
SN12C renal = test system: SN12C renal
SNB-19 CNS = test system: SNB-19 CNS
SNB-75 CNS = test system: SNB-75 CNS
SR leukemia = test system: SR leukemia
SW-620 colon = test system: SW-620 colon
T-47D breast = test system: T-47D breast
TK-10 renal = test system: TK-10 renal
U251 CNS = test system: U251 CNS
UACC-257 melanoma = test system: UACC-257 melanoma
UACC-62 melanoma = test system: UACC-62 melanoma
UO-31 renal = test system: UO-31 renal

## Cc1ccc(C2=Nc3c(N)ncnc3NC(c3ccc4c(c3)OCO4)C2)cc1 (configuration not stated)
786-0 renal
  GI50: > 100 µM
  TGI: > 100 µM
A498 renal
  GI50: 6.33 µM
  TGI: 35.2 µM
A549 NSCLC
  GI50: 7.09 µM
  TGI: 52.9 µM
ACHN renal
  GI50: 7.74 µM
  TGI: 36.7 µM
CAKI-1 renal
  GI50: 1.44 µM
  TGI: 19.1 µM
COLO 205 colon
  GI50: 3.47 µM
  TGI: 21.7 µM
DU-145 prostate
  GI50: 4.52 µM
  TGI: 14.7 µM
EKVX NSCLC
  GI50: 16.2 µM
  TGI: > 100 µM
HCC-2998 colon
  GI50: 6.3 µM
  TGI: 67.1 µM
HCT-15 colon
  GI50: 3.14 µM
  TGI: 13.7 µM
HL-60(TB) leukemia
  GI50: 0.718 µM
  TGI: > 100 µM
HOP-62 NSCLC
  GI50: > 100 µM
  TGI: > 100 µM
HS 578T breast
  GI50: 7.28 µM
  TGI: 40 µM
HT29 colon
  GI50: 3.81 µM
  TGI: 33.9 µM
IGROV1 ovarian
  GI50: 3.34 µM
  TGI: 26.2 µM
K-562 leukemia
  GI50: 4.19 µM
  TGI: > 100 µM
KM12 colon
  GI50: 3.79 µM
  TGI: 15 µM
LOX IMVI melanoma
  GI50: 6.38 µM
  TGI: 25 µM
M14 melanoma
  GI50: > 100 µM
  TGI: > 100 µM
MALME-3M melanoma
  GI50: 3.01 µM
  TGI: 26.8 µM
MCF7 breast
  GI50: 3.42 µM
  TGI: > 100 µM
MDA-MB-231 breast
  GI50: 4.37 µM
  TGI: 19.5 µM
MDA-MB-435
  GI50: 1.15 µM
  TGI: 4.12 µM
MOLT-4 leukemia
  GI50: 2.66 µM
  TGI: > 100 µM
NCI-H226 lung
  GI50: 12.6 µM
  TGI: 47.9 µM
NCI-H23 lung
  GI50: 10.2 µM
  TGI: 63.3 µM
NCI-H460 lung
  GI50: 3.59 µM
  TGI: 12.8 µM
NCI-H522 lung
  GI50: 3.67 µM
  TGI: 23.2 µM
NCI/ADR-RES ovarian
  GI50: 3.52 µM
  TGI: 22.9 µM
OVCAR-3 ovarian
  GI50: 2.75 µM
  TGI: 6.11 µM
OVCAR-4 ovarian
  GI50: 17.7 µM
  TGI: 74.9 µM
OVCAR-5 ovarian
  GI50: 32.1 µM
  TGI: > 100 µM
OVCAR-8 ovarian
  GI50: 13.5 µM
  TGI: > 100 µM
RXF 393 renal
  GI50: 3.5 µM
  TGI: 23.1 µM
SF-268 CNS
  GI50: 4.06 µM
  TGI: 16.3 µM
SF-295 CNS
  GI50: 3.45 µM
  TGI: 21.7 µM
SF-539 CNS
  GI50: 4.98 µM
  TGI: 21.7 µM
SK-MEL-28 melanoma
  GI50: 10.2 µM
  TGI: 38 µM
SK-MEL-5 melanoma
  GI50: 3.85 µM
  TGI: 37.5 µM
SK-OV-3 ovarian
  GI50: 15.8 µM
  TGI: 52.3 µM
SN12C renal
  GI50: 8.61 µM
  TGI: > 100 µM
SNB-19 CNS
  GI50: 38.2 µM
  TGI: > 100 µM
SNB-75 CNS
  GI50: 4.55 µM
  TGI: 37.2 µM
SR leukemia
  GI50: 0.249 µM
  TGI: 3.85 µM
SW-620 colon
  GI50: 3.56 µM
  TGI: 16.8 µM
T-47D breast
  GI50: 5.72 µM
  TGI: > 100 µM
TK-10 renal
  GI50: 4.47 µM
  TGI: 21.1 µM
U251 CNS
  GI50: 4.55 µM
  TGI: 16.3 µM
UACC-257 melanoma
  GI50: 40 µM
  TGI: > 100 µM
UACC-62 melanoma
  GI50: 4.09 µM
  TGI: > 100 µM
UO-31 renal
  GI50: 10.8 µM
  TGI: 26.5 µM
